Assay results published in ChEMBL document CHEMBL4732115, “Discovery of novel cell-penetrating and tumor-targeting peptide-drug conjugate (PDC) for programmable delivery of paclitaxel and cancer treatment” (Eur J Med Chem, 2021).
Blank lines part the entries; values can stand above or below the molecule they belong to. Activity calls are given as the source filed them. No cut-off for these calls is given here.

How the values were obtained:
[1] = Neurotoxicity in BALB/c mouse assessed as increase in pain sensitivity at 12 umol/kg, ip administered every two days for 14 days by hot-plate test; format: toxicity, organism-based; conditions: in vivo, 336 h, dose 12 µmol/kg, time 14 day
[2] = Neurotoxicity in BALB/c mouse assessed as change in acetylcholine level at 12 umol/kg, ip administered every two days for 14 days measured post last dose by LC-MS analysis; format: toxicity, organism-based; conditions: in vivo, 336 h, dose 12 µmol/kg, time 14 day
[3] = Neurotoxicity in BALB/c mouse assessed as change in GABA level at 12 umol/kg, ip administered every two days for 14 days measured post last dose by LC-MS analysis; format: toxicity, organism-based; conditions: in vivo, 336 h, dose 12 µmol/kg, time 14 day
[4] = Neurotoxicity in BALB/c mouse assessed as increase in pain sensitivity at 12 umol/kg, ip administered every two days for 14 days by hot water tail immersion test; format: toxicity, organism-based; conditions: in vivo, 336 h, dose 12 µmol/kg, time 14 day
MCF7 [5] = assay: Cell cycle arrest in human MCF7 cells assessed as increase in accumulation at G2/M-phase at IC50 measured after 4 hrs by […] flow cytometry; format: functional
MCF7 [6] = assay: Cytotoxicity against human MCF7 cells assessed as reduction in cell viability measured after 48 hrs by MTT assay; format: functional, cell-based; conditions: MCF7, 48 h
[7] = Neurotoxicity in BALB/c mouse assessed as change in histamine level at 12 umol/kg, ip administered every two days for 14 days measured post last dose by LC-MS analysis; format: toxicity, organism-based; conditions: in vivo, 336 h, dose 12 µmol/kg, time 14 day
[8] = Neurotoxicity in BALB/c mouse assessed as change in dopamine level at 12 umol/kg, ip administered every two days for 14 days measured post last dose by LC-MS analysis; format: toxicity, organism-based; conditions: in vivo, 336 h, dose 12 µmol/kg, time 14 day
MCF7 [9] = assay: Antitumor activity against human MCF7 cells xenografted in BALB/c nude mouse assessed as reduction in tumor weight at 12 umol/kg, ip administered every two days for two weeks relative to control; format: functional; set-up: scale not given: the % may be the effect or the level left; conditions: dose 12 µmol/kg; time 2 weeks
HT-29 = assay: Cytotoxicity against human HT-29 cells assessed as reduction in cell viability measured after 48 hrs by MTT assay; format: functional, cell-based; conditions: HT-29, 48 h
[10] = Drug uptake in human MCF7 cells at 20 nM measured after 4 hrs by LC-MS analysis; format: ADME, cell-based; conditions: mcf7, 4 h, 0.02 µM
NCM460 = assay: Cytotoxicity against human NCM460 cells assessed as reduction in cell viability measured after 48 hrs by MTT assay; format: cell-based; conditions: NCM460, 48 h
A2780 = assay: Cytotoxicity against human A2780 cells assessed as reduction in cell viability measured after 48 hrs by MTT assay; format: functional, cell-based; conditions: A2780, 48 h
[11] = Neurotoxicity in BALB/c mouse assessed as increase in pain sensitivity at 12 umol/kg, ip administered every two days for 14 days by cold water tail immersion test; format: toxicity, organism-based; conditions: in vivo, 336 h, dose 12 µmol/kg, time 14 day
MCF7 [12] = assay: Induction of apoptosis in human MCF7 cells at IC50 measured after 4 hrs by Annexin-V FITC/propidium iodide staining based flow cytometry; format: functional, cell-based
MCF7 [13] = assay: Antitumor activity against human MCF7 cells xenografted in BALB/c nude mouse assessed as reduction in tumor volume at 12 umol/kg, ip administered every two days for two weeks relative to control; format: functional; set-up: scale not given: the % may be the effect or the level left; conditions: dose 12 µmol/kg; time 2 weeks
[14] = Drug uptake in tumor of BALB/c nude mouse xenografted with human MCF7 cells at 8 to 12 umol/kg, ip measured after 2 hrs by LC-MS analysis; format: ADME, organism-based, Neoplasm; conditions: in vivo, dose 8-12 µmol/kg
MCF7 [15] = assay: Induction of mitochondrial membrane potential loss in human MCF7 cells at IC50 measured after 4 hrs by JC-1 staining based flow cytometry; format: functional, cell-based
[16] = Neurotoxicity in BALB/c mouse assessed as change in serotonin level at 12 umol/kg, ip administered every two days for 14 days measured post last dose by LC-MS analysis; format: toxicity, organism-based; conditions: in vivo, 336 h, dose 12 µmol/kg, time 14 day
[17] = Neurotoxicity in BALB/c mouse assessed as change in histidine level at 12 umol/kg, ip administered every two days for 14 days measured post last dose by LC-MS analysis; format: toxicity, organism-based; conditions: in vivo, 336 h, dose 12 µmol/kg, time 14 day
[18] = Neurotoxicity in BALB/c mouse assessed as change in DOPAC level at 12 umol/kg, ip administered every two days for 14 days measured post last dose by LC-MS analysis; format: toxicity, organism-based; conditions: in vivo, 336 h, dose 12 µmol/kg, time 14 day
[19] = Cytotoxicity against human A2780/PTX cells assessed as reduction in cell viability measured after 48 hrs by MTT assay; format: functional, cell-based
[20] = Neurotoxicity in BALB/c mouse assessed as change in glutamate level at 12 umol/kg, ip administered every two days for 14 days measured post last dose by LC-MS analysis; format: toxicity, organism-based; conditions: in vivo, 336 h, dose 12 µmol/kg, time 14 day
[21] = Neurotoxicity in BALB/c mouse assessed as change in glutamine level at 12 umol/kg, ip administered every two days for 14 days measured post last dose by LC-MS analysis; format: toxicity, organism-based; conditions: in vivo, 336 h, dose 12 µmol/kg, time 14 day
HEK293 = assay: Cytotoxicity against HEK293 cells assessed as reduction in cell viability measured after 48 hrs by MTT assay; format: cell-based; conditions: Homo sapiens, HEK293, 48 h
[22] = Neurotoxicity in BALB/c mouse assessed as change in vanillylmandelic acid level at 12 umol/kg, ip administered every two days for 14 days measured post last dose by LC-MS analysis; format: toxicity, organism-based; conditions: in vivo, 336 h, dose 12 µmol/kg, time 14 day
[23] = Neurotoxicity in BALB/c mouse assessed as change in noradrenaline level at 12 umol/kg, ip administered every two days for 14 days measured post last dose by LC-MS analysis; format: toxicity, organism-based; conditions: in vivo, 336 h, dose 12 µmol/kg, time 14 day

Drug uptake [10]: Active
Drug uptake [14]: Active
Molecule: CC(=O)O[C@H]1C(=O)[C@@]2(C)[C@H]([C@H](OC(=O)c3ccccc3)[C@]3(O)C[C@H](OC(=O)[C@H](O)[C@@H](NC(=O)c4ccccc4)c4ccccc4)C(C)=C1C3(C)C)[C@]1(OC(C)=O)CO[C@@H]1C[C@@H]2O [PACLITAXEL]
Activity [1]: Toxic
Activity [2]: Toxic
Activity [3]: Toxic
Activity [4]: Toxic
Activity (MCF7 [5]): Active
IC50 (MCF7 [6]): 0.0066 µM
Activity [7]: Toxic
Activity [8]: Toxic
Activity (MCF7 [9]): 65.7%
IC50 (HT-29): 0.0086 µM
IC50 (NCM460): 0.0092 µM
IC50 (A2780): 0.0152 µM
Activity [11]: Toxic
Activity (MCF7 [12]): Active
Activity (MCF7 [13]): 75.7%
Activity (MCF7 [15]): Active
Activity [16]: Toxic
Activity [17]: Toxic
Activity [18]: Toxic
IC50 [19]: 23.9 µM
Activity [20]: Toxic
Activity [21]: Toxic
IC50 (HEK293): 0.0163 µM
Activity [22]: Toxic
Activity [23]: Toxic

Molecule: H-FKKFFRKLK-NH2
IC50 (MCF7 [6]): > 50 µM
IC50 (HT-29): > 50 µM

Molecule: H-FFRKLKKSV-NH2
IC50 (MCF7 [6]): > 50 µM
IC50 (HT-29): > 50 µM

Molecule: H-KFFRKLKKS-NH2
IC50 (MCF7 [6]): > 50 µM
IC50 (HT-29): > 50 µM

Molecule: H-RFKKFFRKL-NH2
IC50 (MCF7 [6]): > 50 µM
IC50 (HT-29): > 50 µM

Molecule: H-VKRFKKFFRKLKKSV-NH2
IC50 (MCF7 [6]): 18.2 µM
IC50 (HT-29): 15.1 µM

Molecule: H-KKFFRKLKK-NH2
IC50 (MCF7 [6]): > 50 µM
IC50 (HT-29): > 50 µM

Molecule: H-VKRFKKFFR-NH2
IC50 (MCF7 [6]): > 50 µM
IC50 (HT-29): > 50 µM

Molecule: H-KRFKKFFRK-NH2
IC50 (MCF7 [6]): > 50 µM
IC50 (HT-29): > 50 µM
